Values after ≈ are worked out from the molar mass of the structure shown.
What was measured:
[1] = system: E. cloacae 1194E; assay: Minimum inhibitory concentration, agar dilution; assay type: cell-based; conditions: Enterobacter cloacae, 1194E, 20 h, read-out: Minimum Inhibitory Concentration
Experimental: (§1) The minimum inhibitory concentration was determined by diluting the test compounds according to 2-fold dilution, suspending them in M uller-Hinton agar medium, inoculating the test strains having 10^7 CFU per 1 ml into the medium and then culturing the medium at 37° C. for 20 hours.

[2] = system: P. aeruginosa 6065Y; assay: Minimum inhibitory concentration, agar dilution; assay type: cell-based; conditions: Pseudomonas aeruginosa, 20 h, read-out: Minimum Inhibitory Concentration
Experimental: as §1

[3] = system: S. aureus giorigio; assay: Minimum inhibitory concentration, agar dilution; assay type: cell-based; conditions: Staphylococcus aureus, Muller-Hinton agar, 10^7 CFU per ml, 37° C., 20 hours
Experimental: as §1

[4] = system: S. typhimurium 14028A; assay: Minimum inhibitory concentration, agar dilution; assay type: cell-based; conditions: Salmonella enterica; S. typhimurium 14028A; Muller-Hinton agar, 10^7 CFU per ml, 37° C., 20 hours; read-out: Minimum Inhibitory Concentration
Experimental: as §1

[5] = system: K. aerogenes 1976E; assay: Minimum inhibitory concentration, agar dilution; assay type: cell-based; conditions: Klebsiella aerogenes, Muller-Hinton agar, 10^7 CFU per ml, 37° C., 20 hours
Experimental: as §1

[6] = system: S. aureus 6538pA; assay: Minimum inhibitory concentration, agar dilution; assay type: cell-based; conditions: Staphylococcus aureus, Muller-Hinton agar, 10^7 CFU per ml, 37° C., 20 hours
Experimental: as §1

[7] = system: E. coli TEM9 2639E; assay: Minimum inhibitory concentration, agar dilution; assay type: cell-based; conditions: Escherichia coli, TEM92639E, 20 h, read-out: Minimum Inhibitory Concentration
Experimental: as §1

[8] = system: E. coli TEM1 1193E; assay: Minimum inhibitory concentration, agar dilution; assay type: cell-based; conditions: Escherichia coli, TEM11193E, 20 h, read-out: Minimum Inhibitory Concentration
Experimental: as §1

[9] = system: E. coli 10536; assay: Minimum inhibitory concentration, agar dilution; assay type: cell-based; conditions: Escherichia coli; E. coli 10536; Muller-Hinton agar, 10^7 CFU per ml, 37° C., 20 hours; read-out: Minimum Inhibitory Concentration
Experimental: as §1

[10] = system: A. calcoaceticus 15473A; assay: Minimum inhibitory concentration, agar dilution; assay type: cell-based; conditions: Acinetobacter calcoaceticus, Muller-Hinton agar, 10^7 CFU per ml, 37° C., 20 hours
Experimental: as §1

[11] = system: P. aeruginosa 1912E; assay: Minimum inhibitory concentration, agar dilution; assay type: cell-based; conditions: Pseudomonas aeruginosa, 20 h, read-out: Minimum Inhibitory Concentration
Experimental: as §1

[12] = system: S. marcescens 1826E; assay: Minimum inhibitory concentration, agar dilution; assay type: cell-based; conditions: Serratia marcescens, Muller-Hinton agar, 10^7 CFU per ml, 37° C., 20 hours
Experimental: as §1

[13] = system: E. coli TEM5 3739E; assay: Minimum inhibitory concentration, agar dilution; assay type: cell-based; conditions: Escherichia coli, TEM53739E, 20 h, read-out: Minimum Inhibitory Concentration
Experimental: as §1

[14] = system: P. aeruginosa 10145; assay: Minimum inhibitory concentration, agar dilution; assay type: cell-based; conditions: Pseudomonas aeruginosa, Muller-Hinton agar, 10^7 CFU per ml, 37° C., 20 hours
Experimental: as §1

[15] = system: E. coli 3190Y; assay: Minimum inhibitory concentration, agar dilution; assay type: cell-based; conditions: Escherichia coli; E. coli 3190Y; Muller-Hinton agar, 10^7 CFU per ml, 37° C., 20 hours; read-out: Minimum Inhibitory Concentration
Experimental: as §1

[16] = system: S. faecalis 29212A; assay: Minimum inhibitory concentration, agar dilution; assay type: cell-based; conditions: Enterococcus faecalis; S. faecalis 29212A; Muller-Hinton agar, 10^7 CFU per ml, 37° C., 20 hours; read-out: Minimum Inhibitory Concentration
Experimental: as §1

[17] = Pharmacokinetic properties in SD rats; assay type: in vivo; conditions: rat; SD rats (male), intravenous, 20 mg/kg; blood, biological assay (agar well method)
Experimental: The pharmacokinetic properties of the compound of the present invention were determined using SD rats (.male.) weighing 220 to 340 g. Specifically, the test samples were administered in intravenous route in an amount of 20 mg/kg to 2 to 5 test animals. Blood was taken from femoral vein every hours after the administration and then subjected to a biological assay using agar well method to measure the blood concentration. The results of pharmacokinetic properties calculated from the above blood concentration are described in the following Table 3.

With `Cn1cc[n+]2c(SCC3=C(C(=O)[O-])N4C(=O)C(NC(=O)C(=NOC(C(=O)O)c5ccc(O)c(O)c5)c5csc(N)n5)C4SC3)nc(N)cc12` (stereo not drawn) [I-11(a), 7-[(Z)-2-(2-aminothiazol-4-yl)-2-(α-carboxy-3,4-dihydroxybenzyloxyimino)acetamido]-3-(7-amino-1-methyl-1H-imidazo[1,2-c]pyrimidinium-5-yl)-thiomethyl-3-cephem-4-carboxylate] as the molecule, how does the MIC [1] read?
The MIC was 1 µg/mL (≈ 1.37 µM).

And the MIC [2]?
Its MIC is 0.5 µg/mL (≈ 0.687 µM).

What about the MIC [3] of the same molecule?
Its MIC is 0.5 µg/mL (≈ 0.687 µM).

What about the MIC [4] of the same molecule?
The MIC was 0.016 µg/mL (≈ 0.022 µM).

And the MIC [5]?
Its MIC is 0.13 µg/mL (≈ 0.179 µM).

What about the MIC [6] of the same molecule?
Its MIC is 0.5 µg/mL (≈ 0.687 µM).

What about the MIC [7] of the same molecule?
The MIC was 1 µg/mL (≈ 1.37 µM).

What about the MIC [8] of the same molecule?
The MIC was 0.063 µg/mL (≈ 0.0866 µM).

What about the MIC [9] of the same molecule?
Its MIC is ≤ 8 ng/mL.

And the MIC [10]?
Its MIC is 0.5 µg/mL (≈ 0.687 µM).

And the MIC [11]?
Its MIC is 0.5 µg/mL (≈ 0.687 µM).

And the MIC [12]?
The MIC was 0.25 µg/mL (≈ 0.344 µM).

What about the MIC [13] of the same molecule?
Its MIC is 0.25 µg/mL (≈ 0.344 µM).

And the MIC [14]?
The MIC was 0.25 µg/mL (≈ 0.344 µM).

What about the MIC [15] of the same molecule?
The MIC was 0.031 µg/mL (≈ 0.0426 µM).

What about the MIC [16] of the same molecule?
The MIC was 8 µg/mL (≈ 11 µM).

And the AUC [17]?
Its AUC is 47900 ng·h/mL.

And the half-life [17]?
Its half-life is 68 min.
